Results as given in PMC12630350, “Direct coupling of lactate oxidation with butyryl-CoA formation via a canonical electron transfer flavoprotein in Fusobacterium nucleatum” (The Journal of Biological Chemistry, 2025).

Target: T1, ETFFN (EtfAB, FN1533-FN1534) (Fusobacterium polymorphum, UniProt A0A1Z3CIN2+A0A1Z3CJK5)
T1 construct: gene CBG50_09400; heterodimer, His6 tag on N-terminus of EtfB; EtfA 34,980 Da, tagged EtfB 30,560 Da; E. coli BL21(DE3)
T1 sequence (A0A1Z3CIN2 1-322): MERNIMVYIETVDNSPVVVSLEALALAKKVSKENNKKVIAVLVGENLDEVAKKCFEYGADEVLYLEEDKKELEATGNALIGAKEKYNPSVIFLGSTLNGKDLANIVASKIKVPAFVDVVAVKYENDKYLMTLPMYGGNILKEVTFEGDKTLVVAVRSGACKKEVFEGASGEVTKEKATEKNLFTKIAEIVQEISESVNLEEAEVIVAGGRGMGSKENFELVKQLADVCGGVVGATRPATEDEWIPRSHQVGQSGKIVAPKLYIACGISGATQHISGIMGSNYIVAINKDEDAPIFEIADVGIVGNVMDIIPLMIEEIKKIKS
T1 sequence (A0A1Z3CJK5 1-259): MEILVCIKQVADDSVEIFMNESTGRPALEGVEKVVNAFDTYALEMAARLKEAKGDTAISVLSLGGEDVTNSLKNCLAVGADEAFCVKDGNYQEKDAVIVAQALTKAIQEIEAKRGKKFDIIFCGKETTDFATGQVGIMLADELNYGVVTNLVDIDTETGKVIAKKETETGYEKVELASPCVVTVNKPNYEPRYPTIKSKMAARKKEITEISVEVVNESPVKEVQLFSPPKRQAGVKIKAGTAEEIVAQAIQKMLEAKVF
Assay: UV-visible spectrum; FAD released by heat denaturation
Format: binding
Conditions: copurified; FAD in alpha-subunit; FAD to protein ratio determined

Cc1cc2nc3c(=O)[nH]c(=O)nc-3n(C[C@H](O)[C@H](O)[C@H](O)COP(=O)(O)OP(=O)(O)OC[C@H]3O[C@@H](n4cnc5c(N)ncnc54)[C@H](O)[C@@H]3O)c2cc1C [FAD]
UV-visible spectrum; FAD released by heat denaturation: diagnostic of the FAD cofactor
